From patent US20210380666A1, “SYNTHETIC HEME-CONTAINING MOLECULES AND THEIR USE” (priority 2017, published 2021)
Ends that are not written are not given here.

Tests used:
[1] = system: 100% CO bound hemoglobin (HbCO); assay: CO scavenging from CO-bound hemoglobin, UV-visible spectra kinetics; format: biochemical; conditions: 100% HbCO mixed with reduced heme-peptide; spectral changes during reaction
[2] = CO binding of dithionite-reduced heme molecule by absorbance spectra; conditions: anaerobic, reduced with stoichiometric dithionite, CO saturated phosphate buffered saline added
From the text: A heme molecule bound to two peptide chains Ac-GCHGGR (SEQ ID NO: 2) in a “sandwich” (see FIG. 1), when prepared in anaerobic conditions, changes absorbance spectra (measured by Cary Spec device) with the introduction of stoichiometric amounts of dithionite.

| Substance | kobs for CO scavenging, k1 [1] [s⁻¹] | kobs for CO scavenging, k2 [1] [s⁻¹] | CO binding ability (change of absorbance spectra) [2] |
| --- | --- | --- | --- |
| RCHGGR: heme group bound to two non-contiguous peptides each of sequence RCHGGR (not fully specified (N-terminus); also: heme group bound to two non-contiguous peptide copies) | 0.02576 | 0.01241 |  |
| QHGCGGCHG (N-acetyl; heme bound via two thioether bonds) | 0.1828 | 0.00968 |  |
| Ac-GCHGGR: heme molecule bound to two peptide chains Ac-GCHGGR in a sandwich configuration (also: heme molecule bound to two peptide chains in a sandwich configuration) |  |  | indicating its CO binding ability |
| microperoxidase-11 [MP11, reference compound] | 0.0215 |  |  |
